From US7265121B2, “Chemical compounds” (Eli Lilly and Company, priority 2001, dated 2007)

Molecular target: T1, human factor Xa (Homo sapiens, UniProt P00742)
T1 construct: 25 μL human factor Xa (32 nM in 0.03 M tris, 0.15 M NaCl, 1 mg/mL HSA); purchased Enzyme Research Laboratories (South Bend, Ind., USA)
Experiment: Enzyme inhibition assay: apparent association constant (Kass) for human factor Xa, chromogenic substrate hydrolysis
Assay type: biochemical
Settings: human factor Xa 3.2 nM, BzIleGluGlyArgpNA substrate, approximately inverse of Ki
Protocol: Human factor Xa and human thrombin are purchased from Enzyme Research Laboratories (South Bend, Ind., USA). Other proteases are from other commercial sources. Chromogenic para-nitroanilide peptide protease substrates are purchased from Midwest Biotech (Fishers, Ind., USA).
The binding affinities for human factor Xa are were measured as apparent association constants (Kass) derived from protease inhibition kinetics as described previously.^a,b,c,d The apparent Kass values are obtained using automated (BioMek-1000) dilutions of inhibitors (Kass determinations are performed in triplicate at each of four-eight inhibitor concentrations) into 96-well plates and chromogenic substrate hydrolysis rates determined at 405 nm using a Thermomax plate reader from Molecular Devices (San Francisco). For factor Xa inhibition, the assay protocol is: 50 μL buffer (0.06 M tris, 0.3 M NaCl, pH 7.4); 25 μL inhibitor test solution (in MeOH); 25 μL human factor Xa (32 nM in 0.03 M tris, 0.15 M NaCl, 1 mg/mL HSA); finally, 150 μL BzIleGluGlyArgpNA (0.3 mM in water) added within 2 min to start hydrolysis. Final [factor Xa] is 3.2 nM. [Free Xa] and [bound Xa] are determined from linear standard curves on the same plate by use of SoftmaxPro software for each inhibitor concentration and apparent Kass calculated for each inhibitor concentration which produced hydrolysis inhibition between 20% and 80% of the control (3.2 nM factor Xa): apparent Kass [E:I]/[Ef][If]=[Eb]/[Ef][I^o−Ib]. The apparent Kass values so obtained are approximately the inverse of the Ki for the respective inhibitors [1/appKass=app Ki]. The variability of mean apparent Kass values determined at the single substrate concentration is +/−15%. The assay system Km was measured as 0.347+/−0.031 mM [n=4]; and Vmax was 13.11+/−0.76 μM/min.

T1 sequence (P00742 235-488 limits assumed): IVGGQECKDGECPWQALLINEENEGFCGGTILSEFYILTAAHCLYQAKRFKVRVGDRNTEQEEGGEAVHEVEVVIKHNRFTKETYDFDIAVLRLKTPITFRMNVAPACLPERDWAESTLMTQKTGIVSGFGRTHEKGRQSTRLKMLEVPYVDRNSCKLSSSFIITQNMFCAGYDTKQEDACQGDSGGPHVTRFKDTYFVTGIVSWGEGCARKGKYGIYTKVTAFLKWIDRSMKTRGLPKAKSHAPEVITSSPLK
T1 sequence (P00742 41-179 partner limits assumed): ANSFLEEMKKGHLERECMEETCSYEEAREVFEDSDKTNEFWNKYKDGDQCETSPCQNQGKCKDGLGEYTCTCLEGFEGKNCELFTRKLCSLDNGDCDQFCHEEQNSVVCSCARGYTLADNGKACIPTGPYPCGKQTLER

Kass	Compound
about 20 ×10^6 L/mole	COc1ccc(C(=O)N[C@@H](C(=O)N2CCC(C3CCN(C)CC3)CC2)C(C)C)cc1.Cl [Example 6, 1-(4-Methoxybenzoyl-D-valinyl)-4-(1-methylpiperidin-4-yl)-piperidine Hydrochloride]
~8.9e+07 L/mol	CC(C)[C@@H](NC(=O)c1ccc2cc[nH]c2c1)C(=O)N1CCC(C2CCN(C)CC2)CC1.Cl [Example 9, 1-(Indole-6-carbonyl-D-valinyl)-4-(1-methylpiperidin-4-yl)piperidine Hydrochloride]
~3.58e+08 L/mol	CC(C)[C@@H](NC(=O)c1cc2cc(Cl)ccc2[nH]1)C(=O)N1CCN(C2CCN(C)CC2)CC1.Cl [Example 18, 1-(5-Chloroindole-2-carbonyl-D-valinyl)-4-(1-methylpiperidin-4-yl)piperazine Hydrochloride]

Tested on: not given
Experiment: not given
Settings: not given

Compound	melting point
C#CC[C@@H](NC(=O)c1ccc2cc[nH]c2c1)C(=O)N1CCN(C2CCN(C)CC2)CC1.Cl	170 to 180 °C (dec.)
C#CC[C@@H](NC(=O)c1cc2ccc(Cl)cc2s1)C(=O)N1CCN(C2CCN(C)CC2)CC1.Cl	115 to 135 °C (dec.)

The remaining lines, values ahead:

melting point	Compound
174 to 185 °C (dec.)	C#CC[C@@H](NC(=O)c1cc2cc(Cl)ccc2[nH]1)C(=O)N1CCN(C2CCN(C)CC2)CC1.Cl
110 to 115 °C (dec.)	C=CC[C@@H](NC(=O)c1ccc2cc[nH]c2c1)C(=O)N1CCN(C2CCN(C)CC2)CC1.Cl
130 to 135 °C (dec.)	C=CC[C@@H](NC(=O)c1cc2ccc(Cl)cc2s1)C(=O)N1CCN(C2CCN(C)CC2)CC1.Cl
170 to 175 °C (dec.)	C=CC[C@@H](NC(=O)c1cc2cc(Cl)ccc2[nH]1)C(=O)N1CCN(C2CCN(C)CC2)CC1.Cl
